pIC50: −log10 of the molar value.
Molecular target: T1, BACE2 (Rattus norvegicus, UniProt Q6IE75)
T1 construct: endogenous cellular BACE2 in the Ins1e rat cell line; endogenous in cells; host or cells: INS-TMEM27 (INS1e-derived rat beta-cell line with doxycycline-inducible full-length hTMEM27)
T1 sequence (Q6IE75 63-514): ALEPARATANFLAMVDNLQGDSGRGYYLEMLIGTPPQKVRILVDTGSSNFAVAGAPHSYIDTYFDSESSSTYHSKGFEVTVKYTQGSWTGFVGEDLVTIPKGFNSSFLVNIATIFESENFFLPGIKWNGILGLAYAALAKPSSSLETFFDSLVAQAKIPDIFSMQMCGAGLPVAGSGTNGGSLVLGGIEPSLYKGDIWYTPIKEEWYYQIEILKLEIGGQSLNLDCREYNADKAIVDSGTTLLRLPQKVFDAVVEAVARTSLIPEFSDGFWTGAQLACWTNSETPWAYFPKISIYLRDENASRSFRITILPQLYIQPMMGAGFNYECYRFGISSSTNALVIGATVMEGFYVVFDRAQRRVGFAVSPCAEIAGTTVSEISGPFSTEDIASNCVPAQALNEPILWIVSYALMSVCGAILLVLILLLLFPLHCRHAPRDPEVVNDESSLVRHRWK
Test: Assay for BACE inhibition by measuring cellular TMEM27 cleavage (INS-TMEM27 cells, ELISA of shed TMEM27)
Format: cell-based
Settings: inhibition of human TMEM27 cleavage by endogenous cellular BACE2 in INS1e-derived INS-TMEM27 rat cell line; ELISA of shed TMEM27 in supernatant
Excerpt: Assay for […] Inhibition by Measuring Cellular TMEM27 Cleavage
This assay uses the principle of inhibition of human TMEM27 cleavage by endogenous cellular BACE2 in the Ins1e rat cell line and shedding from the cell surface into the culture medium, followed by detection in an ELISA assay. Inhibition of BACE2 prevents the cleavage and shedding in a dose-dependent manner.
The stable cell line “INS-TMEM27” represents an INS1e-derived cell line with inducible expression (using the TetOn system) of full-length hTMEM27 in a doxycycline-dependent manner. The cells were cultured throughout the experiment in RPMI1640+Glutamax (Invitrogen) Penicillin/Streptomycin, 10% Fetal bovine serum, 100 mM pyruvate, […] beta-mercatptoethanol, 100 micrograms/ml G418 and 100 microgram/ml hygromycin and were grown in adherent culture at 37° C. in a standard CO2 cell culture incubator.
INS-TMEM27 cells were seeded in 96-well plates. After 2 days in culture, BACE2 inhibitor was added in a range of concentrations as required by the assay and after a further two hours, doxycycline was added to a final concentration of 500 ng/ml. The cells were incubated for a further 46 hours and the supernatant harvested for detection of shed TMEM27.
An ELISA assay (using a pair of mouse anti-human-TMEM27 antibodies, raised against the extracellular domain of TMEM27) was used for detection of TMEM27 in the culture medium. An IC50 for BACE2 inhibition was calculated using the ELISA readout for each inhibitor concentration with standard curve-fitting software.
The inhibitory activity, given as an IC50 value, of the compounds of Examples 1 to 32 and 34 to 74 were as follows.

pIC50 | SMILES
9.70 | CCn1cc(CNC[C@@H](O)[C@H](Cc2ccccc2)NC(=O)c2cc(C(=O)N3CCCC3c3ccccc3)cc(N(C)S(C)(=O)=O)c2)cn1 (stereo partly drawn) [Example 35, N-{(1S,2R)-1-Benzyl-3-[(1-ethyl-1H-pyrazol-4-ylmethyl)-amino]-2-hydroxy-propyl}-3-(methanesulfonyl-methyl-amino)-5-(2-phenyl-pyrrolidine-1-carbonyl)-benzamide]
9.00 | CCn1cc(CNC[C@@H](O)[C@H](Cc2ccccc2)NC(=O)c2cc(C)cc(C(=O)N3CCCC3c3ccccc3)c2)cn1 (stereo partly drawn) [Example 36, N-{(1S,2R)-1-Benzyl-3-[(1-ethyl-1H-pyrazol-4-ylmethyl)-amino]-2-hydroxy-propyl}-3-methyl-5-(2-phenyl-pyrrolidine-1-carbonyl)-benzamide]
9.00 | CCn1cc(CNC[C@@H](O)[C@H](Cc2ccccc2)NC(=O)c2cc(C)cc(C(=O)N(C)Cc3ccccn3)c2)cn1 [Example 37, N-{(1S,2R)-1-Benzyl-3-[(1-ethyl-1H-pyrazol-4-ylmethyl)-amino]-2-hydroxy-propyl}-5,N′-dimethyl-N′-pyridin-2-ylmethyl-isophthalamide]
9.52 | CCn1cc(CNC[C@@H](O)[C@H](Cc2ccccc2)NC(=O)c2cc(C(=O)N3CCCC3c3cccs3)cc(N(C)S(C)(=O)=O)c2)cn1 (stereo partly drawn) [Example 38, N-{(1S,2R)-1-Benzyl-3-[(1-ethyl-1H-pyrazol-4-ylmethyl)-amino]-2-hydroxy-propyl}-3-(methanesulfonyl-methyl-amino)-5-(2-thiophen-2-yl-pyrrolidine-1-carbonyl)-benzamide]
9.00 | CCn1cc(CNC[C@@H](O)[C@H](Cc2ccccc2)NC(=O)c2cc(C)cc(C(=O)N3CCCC3c3cccs3)c2)cn1 (stereo partly drawn) [Example 39, N-{(1S,2R)-1-Benzyl-3-[(1-ethyl-1H-pyrazol-4-ylmethyl)-amino]-2-hydroxy-propyl}-3-methyl-5-(2-thiophen-2-yl-pyrrolidine-1-carbonyl)-benzamide]
6.98 | CCn1cc(CNC[C@@H](O)[C@H](Cc2ccccc2)NC(=O)c2cc(C)cc(C(=O)N(C)Cc3nc(C)cs3)c2)cn1 [Example 40, N-{(1S,2R)-1-Benzyl-3-[(1-ethyl-1H-pyrazol-4-ylmethyl)-amino]-2-hydroxy-propyl}-5,N′-dimethyl-N′-(4-methyl-thiazol-2-ylmethyl)-isophthalamide]
10.00 | Cc1csc([C@H]2CCCN2C(=O)c2cc(C(=O)N[C@@H](Cc3ccccc3)[C@H](O)CNCc3cccc(OC(F)(F)F)c3)cc(N(C)S(C)(=O)=O)c2)n1 [Example 41, N-[(1S,2R)-1-Benzyl-2-hydroxy-3-(3-trifluoromethoxy-benzylamino)-propyl]-3-(methanesulfonyl-methyl-amino)-5-[(R)-2-(4-methyl-thiazol-2-yl)-pyrrolidine-1-carbonyl]-benzamide]
7.21 | CN(c1cc(C(=O)N[C@@H](Cc2ccccc2)[C@H](O)CNCc2cccc(OC(F)(F)F)c2)cc(C(=O)N2CCCC2c2ccccc2)c1)S(C)(=O)=O (stereo partly drawn) [Example 42, N-[(1S,2R)-1-Benzyl-2-hydroxy-3-(3-trifluoromethoxy-benzylamino)-propyl]-3-(methanesulfonyl-methyl-amino)-5-(2-phenyl-pyrrolidine-1-carbonyl)-benzamide]
8.52 | Cc1cc(C(=O)N[C@@H](Cc2ccccc2)[C@H](O)CNCc2cccc(OC(F)(F)F)c2)cc(C(=O)N2CCCC2c2ccccc2)c1 (stereo partly drawn) [Example 43, N-[(1S,2R)-1-Benzyl-2-hydroxy-3-(3-trifluoromethoxy-benzylamino)-propyl]-3-methyl-5-(2-phenyl-pyrrolidine-1-carbonyl)-benzamide]
7.31 | Cc1cc(C(=O)N[C@@H](Cc2ccccc2)[C@H](O)CNCc2cccc(OC(F)(F)F)c2)cc(C(=O)N(C)Cc2ccccn2)c1 [Example 44, N-[(1S,2R)-1-Benzyl-2-hydroxy-3-(3-trifluoromethoxy-benzylamino)-propyl]-5,N′-dimethyl-N′-pyridin-2-ylmethyl-isophthalamide]
7.96 | CN(c1cc(C(=O)N[C@@H](Cc2ccccc2)[C@H](O)CNCc2cccc(OC(F)(F)F)c2)cc(C(=O)N2CCCC2c2cccs2)c1)S(C)(=O)=O (stereo partly drawn) [Example 45, N-[(1S,2R)-1-Benzyl-2-hydroxy-3-(3-trifluoromethoxy-benzylamino)-propyl]-3-(methanesulfonyl-methyl-amino)-5-(2-thiophen-2-yl-pyrrolidine-1-carbonyl)-benzamide]
9.00 | Cc1cc(C(=O)N[C@@H](Cc2ccccc2)[C@H](O)CNCc2cccc(OC(F)(F)F)c2)cc(C(=O)N2CCCC2c2cccs2)c1 (stereo partly drawn) [Example 46, N-[(1S,2R)-1-Benzyl-2-hydroxy-3-(3-trifluoromethoxy-benzylamino)-propyl]-3-methyl-5-(2-thiophen-2-yl-pyrrolidine-1-carbonyl)-benzamide]
6.93 | Cc1cc(C(=O)N[C@@H](Cc2ccccc2)[C@H](O)CNCc2cccc(OC(F)(F)F)c2)cc(C(=O)N(C)Cc2nc(C)cs2)c1 [Example 47, N-[(1S,2R)-1-Benzyl-2-hydroxy-3-(3-trifluoromethoxy-benzylamino)-propyl]-5,N′-dimethyl-N′-(4-methyl-thiazol-2-ylmethyl)-isophthalamide]
7.09 | Cc1csc([C@H]2CCCN2C(=O)c2cc(C(=O)N[C@@H](Cc3ccccc3)[C@H](O)CNCc3cccc(C(F)(F)F)c3)cc(N(C)S(C)(=O)=O)c2)n1 [Example 48, N-[(1S,2R)-1-Benzyl-2-hydroxy-3-(3-trifluoromethyl-benzylamino)-propyl]-3-(methanesulfonyl-methyl-amino)-5-[(R)-2-(4-methyl-thiazol-2-yl)-pyrrolidine-1-carbonyl]-benzamide]
6.92 | Cc1cc(C(=O)N[C@@H](Cc2ccccc2)[C@H](O)CNCc2cccc(C(F)(F)F)c2)cc(C(=O)N2CCC[C@@H]2c2nc(C)cs2)c1 [Example 49, N-[(1S,2R)-1-Benzyl-2-hydroxy-3-(3-trifluoromethyl-benzylamino)-propyl]-3-methyl-5-[(R)-2-(4-methyl-thiazol-2-yl)-pyrrolidine-1-carbonyl]-benzamide]
9.40 | Cc1cc(C(=O)N[C@@H](Cc2ccccc2)[C@H](O)CNCc2cccc(C(F)(F)F)c2)cc(C(=O)N2CCCC2c2ccccc2)c1 (stereo partly drawn) [Example 51, N-[(1S,2R)-1-Benzyl-2-hydroxy-3-(3-trifluoromethyl-benzylamino)-propyl]-3-methyl-5-(2-phenyl-pyrrolidine-1-carbonyl)-benzamide]
7.02 | Cc1cc(C(=O)N[C@@H](Cc2ccccc2)[C@H](O)CNCc2cccc(C(F)(F)F)c2)cc(C(=O)N(C)Cc2ccccn2)c1 [Example 52, N-[(1S,2R)-1-Benzyl-2-hydroxy-3-(3-trifluoromethyl-benzylamino)-propyl]-5,N′-dimethyl-N′-pyridin-2-ylmethyl-isophthalamide]
7.54 | CN(c1cc(C(=O)N[C@@H](Cc2ccccc2)[C@H](O)CNCc2cccc(C(F)(F)F)c2)cc(C(=O)N2CCCC2c2cccs2)c1)S(C)(=O)=O (stereo partly drawn) [Example 53, N-[(1S,2R)-1-Benzyl-2-hydroxy-3-(3-trifluoromethyl-benzylamino)-propyl]-3-(methanesulfonyl-methyl-amino)-5-(2-thiophen-2-yl-pyrrolidine-1-carbonyl)-benzamide]
8.72 | Cc1cc(C(=O)N[C@@H](Cc2ccccc2)[C@H](O)CNCc2cccc(C(F)(F)F)c2)cc(C(=O)N2CCCC2c2cccs2)c1 (stereo partly drawn) [Example 54, N-[(1S,2R)-1-Benzyl-2-hydroxy-3-(3-trifluoromethyl-benzylamino)-propyl]-3-methyl-5-(2-thiophen-2-yl-pyrrolidine-1-carbonyl)-benzamide]
7.38 | Cc1ccc(C2CCCN2C(=O)c2cccc(C(=O)N[C@@H](Cc3ccccc3)[C@H](O)CNCc3cccc(C(F)(F)F)c3)c2)cc1 (stereo partly drawn) [Example 55, N-[(1S,2R)-1-Benzyl-2-hydroxy-3-(3-trifluoromethyl-benzylamino)-propyl]-3-(2-p-tolyl-pyrrolidine-1-carbonyl)-benzamide]
6.94 | COc1ccc(C2CCCN2C(=O)c2cccc(C(=O)N[C@@H](Cc3ccccc3)[C@H](O)CNCc3cccc(C(F)(F)F)c3)c2)cc1 (stereo partly drawn) [Example 56, N-[(1S,2R)-1-Benzyl-2-hydroxy-3-(3-trifluoromethyl-benzylamino)-propyl]-3-[2-(4-methoxy-phenyl)-pyrrolidine-1-carbonyl]-benzamide]
